# Measured values published in ChEMBL document CHEMBL1201862, “PubChem BioAssay data set” (2004).
#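 The compound was tested at five concentrations on cells cultured in 96-well plates, with a 48-hour exposure period. GI50 marks 50% less growth.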 Activity calls are given as the source filed them. No stated cut-off is given here; in the data, active = GI50 up to about 1.1 µM and inactive = higher.
# Columns and labels:
# Test in all cases: inhibition of tumour cell growth, NCI panel, 48 h
# OVCAR-8 = test system: OVCAR-8
# COLO 205 = test system: COLO 205
# OVCAR-3 = test system: OVCAR-3
# RXF 393 = test system: RXF 393
# ACHN = test system: ACHN
# MDA-N = test system: MDA-N
# CCRF-CEM = test system: CCRF-CEM
# LOX IMVI = test system: LOX IMVI
# HOP-92 = test system: HOP-92
# 786-0 = test system: 786-0
# SK-MEL-28 = test system: SK-MEL-28
# SNB-75 = test system: SNB-75
# PC-3 = test system: PC-3
# OVCAR-4 = test system: OVCAR-4
# SF-539 = test system: SF-539
# T47D = test system: T47D
# MDA-MB-231 = test system: MDA-MB-231
# SK-MEL-5 = test system: SK-MEL-5
# MOLT-4 = test system: MOLT-4
# HT-29 = test system: HT-29
# NCI-H460 = test system: NCI-H460
# HCC 2998 = test system: HCC 2998
# SW-620 = test system: SW-620
# DU-145 = test system: DU-145
# K562 = test system: K562
# KM12 = test system: KM12
# U-251 = test system: U-251
# TK-10 = test system: TK-10
# CAKI-1 = test system: CAKI-1
# SR = test system: SR
# SNB-19 = test system: SNB-19
# A498 = test system: A498
# HL-60 = test system: HL-60
# RPMI-8226 = test system: RPMI-8226
# SF-295 = test system: SF-295
# SK-OV-3 = test system: SK-OV-3
# M14 = test system: M14
# UO-31 = test system: UO-31
# NCI-H23 = test system: NCI-H23
# NCI-H522 = test system: NCI-H522
# HCT-15 = test system: HCT-15
# MDA-MB-435 = test system: MDA-MB-435
# UACC-62 = test system: UACC-62
# IGROV-1 = test system: IGROV-1
# Malme-3M = test system: Malme-3M
# SF-268 = test system: SF-268
# OVCAR-5 = test system: OVCAR-5
# EKVX = test system: EKVX
# MCF7 = test system: MCF7
# HOP-62 = test system: HOP-62
# Hs-578T = test system: Hs-578T
# UACC-257 = test system: UACC-257
# NCI/ADR-RES = test system: NCI/ADR-RES
# NCI-H226 = test system: NCI-H226
# SK-MEL-2 = test system: SK-MEL-2
# A549 = test system: A549
# HCT-116 = test system: HCT-116
# SN12C = test system: SN12C
smiles,measurement,setting,value
COC(=O)C(CCc1ccccc1I)C1=CCC2(CC1)OCCO2 (stereo not drawn),GI50,OVCAR-8,42 µM (inactive)
same,GI50,COLO 205,57.9 µM (inactive)
same,GI50,OVCAR-3,29.4 µM (inactive)
same,GI50,RXF 393,17.9 µM (inactive)
same,GI50,ACHN,79.3 µM (inactive)
same,GI50,MDA-N,24.2 µM (inactive)
same,GI50,CCRF-CEM,14 µM (inactive)
same,GI50,LOX IMVI,25.8 µM (inactive)
same,GI50,HOP-92,30.4 µM (inactive)
same,GI50,786-0,51.3 µM (inactive)
same,GI50,SK-MEL-28,89.9 µM (inactive)
same,GI50,SNB-75,34 µM (inactive)
same,GI50,PC-3,27 µM (inactive)
same,GI50,OVCAR-4,40.1 µM (inactive)
same,GI50,SF-539,> 100 µM (inactive)
same,GI50,T47D,15.8 µM (inactive)
same,GI50,MDA-MB-231,65.5 µM (inactive)
same,GI50,SK-MEL-5,15 µM (inactive)
same,GI50,MOLT-4,49.8 µM (inactive)
same,GI50,HT-29,35.1 µM (inactive)
same,GI50,NCI-H460,65.8 µM (inactive)
same,GI50,HCC 2998,33.6 µM (inactive)
same,GI50,SW-620,40.4 µM (inactive)
same,GI50,DU-145,73.8 µM (inactive)
same,GI50,K562,66.4 µM (inactive)
same,GI50,KM12,33.1 µM (inactive)
same,GI50,U-251,61.8 µM (inactive)
same,GI50,TK-10,38.3 µM (inactive)
same,GI50,CAKI-1,95.3 µM (inactive)
same,GI50,SR,36.2 µM (inactive)
same,GI50,SNB-19,36.3 µM (inactive)
same,GI50,A498,> 100 µM (inactive)
same,GI50,HL-60,0.0435 µM (active)
same,GI50,RPMI-8226,62.2 µM (inactive)
same,GI50,SF-295,36.9 µM (inactive)
same,GI50,SK-OV-3,> 100 µM (inactive)
same,GI50,M14,28.2 µM (inactive)
same,GI50,UO-31,23.1 µM (inactive)
same,GI50,NCI-H23,30.7 µM (inactive)
same,GI50,NCI-H522,18.7 µM (inactive)
same,GI50,HCT-15,34.1 µM
same,GI50,MDA-MB-435,27.1 µM (inactive)
same,GI50,UACC-62,81.5 µM (inactive)
same,GI50,IGROV-1,96.2 µM (inactive)
same,GI50,Malme-3M,33.6 µM (inactive)
same,GI50,SF-268,57.9 µM (inactive)
same,GI50,OVCAR-5,15.7 µM (inactive)
same,GI50,EKVX,70.8 µM (inactive)
same,GI50,MCF7,32.7 µM (inactive)
same,GI50,HOP-62,70.1 µM (inactive)
same,GI50,Hs-578T,37.6 µM (inactive)
same,GI50,UACC-257,29.4 µM (inactive)
same,GI50,NCI/ADR-RES,24.6 µM (inactive)
same,GI50,NCI-H226,> 100 µM (inactive)
same,GI50,SK-MEL-2,41.2 µM (inactive)
same,GI50,A549,31 µM (inactive)
COc1cccc(C2c3cc4c(cc3OC(C)(N3CCCC3)C2C)OCO4)c1 (stereo not drawn),GI50,HCT-116,7.62 µM (inactive)
same,GI50,OVCAR-8,20.9 µM (inactive)
same,GI50,COLO 205,11.4 µM (inactive)
same,GI50,OVCAR-3,4.89 µM (inactive)
same,GI50,RXF 393,14 µM (inactive)
same,GI50,ACHN,17.6 µM (inactive)
same,GI50,MDA-N,2.13 µM (inactive)
same,GI50,CCRF-CEM,32.7 µM (inactive)
same,GI50,LOX IMVI,10.6 µM (inactive)
same,GI50,HOP-92,10.2 µM (inactive)
same,GI50,786-0,26.1 µM (inactive)
same,GI50,SK-MEL-28,20.3 µM (inactive)
same,GI50,SNB-75,3.18 µM (inactive)
same,GI50,PC-3,16.3 µM (inactive)
same,GI50,OVCAR-4,14.3 µM (inactive)
same,GI50,SF-539,13.9 µM (inactive)
same,GI50,T47D,11.2 µM (inactive)
same,GI50,MDA-MB-231,7.78 µM (inactive)
same,GI50,SK-MEL-5,3.92 µM (inactive)
same,GI50,MOLT-4,51.3 µM (inactive)
same,GI50,HT-29,3.77 µM (inactive)
same,GI50,NCI-H460,9.62 µM (inactive)
same,GI50,HCC 2998,13.1 µM (inactive)
same,GI50,SN12C,17.2 µM (inactive)
same,GI50,SW-620,6.55 µM (inactive)
same,GI50,DU-145,20.7 µM (inactive)
same,GI50,K562,58.3 µM (inactive)
same,GI50,KM12,4 µM (inactive)
same,GI50,U-251,7.59 µM (inactive)
same,GI50,TK-10,10.9 µM (inactive)
same,GI50,CAKI-1,17.1 µM (inactive)
same,GI50,SR,9.48 µM (inactive)
same,GI50,SNB-19,21.9 µM (inactive)
same,GI50,A498,14 µM (inactive)
same,GI50,HL-60,23.1 µM (inactive)
same,GI50,SF-295,8.83 µM (inactive)
same,GI50,SK-OV-3,11.9 µM (inactive)
same,GI50,M14,4.12 µM (inactive)
same,GI50,UO-31,13.1 µM (inactive)
same,GI50,NCI-H23,20.5 µM (inactive)
same,GI50,NCI-H522,2.37 µM (inactive)
same,GI50,HCT-15,5.35 µM
same,GI50,MDA-MB-435,4.19 µM (inactive)
same,GI50,UACC-62,5.38 µM (inactive)
same,GI50,IGROV-1,8.38 µM (inactive)
same,GI50,Malme-3M,11.6 µM (inactive)
same,GI50,SF-268,27.4 µM (inactive)
same,GI50,OVCAR-5,7.73 µM (inactive)
same,GI50,EKVX,24.6 µM (inactive)
same,GI50,MCF7,9.51 µM (inactive)
same,GI50,HOP-62,6.62 µM (inactive)
same,GI50,Hs-578T,3.07 µM (inactive)
same,GI50,UACC-257,18.2 µM (inactive)
same,GI50,NCI/ADR-RES,6.9 µM (inactive)
same,GI50,NCI-H226,6.4 µM (inactive)
same,GI50,SK-MEL-2,2.45 µM (inactive)
same,GI50,A549,7.55 µM (inactive)
